Read-outs that look alike come from different tables or passages of the source. Blank lines part the entries; values can stand above or below the molecule they belong to.
What was measured:
[1] = Ex vivo biodistribution in healthy rats; settings: for Biodistribution BAT: brown adipose tissue; for Biodistribution BAT / Biodistribution adrenals / Biodistribution blood / Biodistribution brain / Biodistribution femur / Biodistribution harderian gland / Biodistribution heart / Biodistribution intestine / Biodistribution kidneys / Biodistribution liver / Biodistribution lung / Biodistribution muscle / Biodistribution pancreas / Biodistribution skin & hair / Biodistribution spleen / Biodistribution stomach / Biodistribution testes / Biodistribution thymus / Biodistribution thyroid gland / Biodistribution urine (calc.) / Biodistribution femur (femur uptake, 18F-defluorination) / Biodistribution WAT: i.v., n = 8, mean ± SD; for Biodistribution WAT: white adipose tissue
log D7.4 by HPLC method = type: physicochemical; settings: HPLC retention on ODP-50 4B column (Shodex Asahipak); pH 7.4, HPLC-based method
[2] = Metabolic stability in vivo: blood clearance, blood components, radiometabolites; set-up: species or system male Wistar rats; settings: for half-life: male, Wistar, rat, arterial blood, iv, 70 MBq, i.v., arterial blood samples; for half-life / Intact compound in blood plasma: rats; for Radioactivity distribution in blood components: erythrocytes / Radioactivity distribution in blood components: plasma / Radioactivity distribution in blood components: plasma supernatant / Radioactivity distribution in blood components: plasma pellet (bound to plasma proteins) / Radioactivity distribution in blood components: plasma pellet: rat blood; for Radioactivity distribution in blood components: plasma pellet (bound to plasma proteins): + TCA precipitation; for Intact compound in blood plasma: radio-HPLC
purified ovine COX-1 = molecular target: T1, purified ovine COX-1 (Ovis aries, UniProt P05979); experiment: COX Fluorescent Inhibitor Screening Assay Kit, COX-1
T1 sequence (P05979 25-600): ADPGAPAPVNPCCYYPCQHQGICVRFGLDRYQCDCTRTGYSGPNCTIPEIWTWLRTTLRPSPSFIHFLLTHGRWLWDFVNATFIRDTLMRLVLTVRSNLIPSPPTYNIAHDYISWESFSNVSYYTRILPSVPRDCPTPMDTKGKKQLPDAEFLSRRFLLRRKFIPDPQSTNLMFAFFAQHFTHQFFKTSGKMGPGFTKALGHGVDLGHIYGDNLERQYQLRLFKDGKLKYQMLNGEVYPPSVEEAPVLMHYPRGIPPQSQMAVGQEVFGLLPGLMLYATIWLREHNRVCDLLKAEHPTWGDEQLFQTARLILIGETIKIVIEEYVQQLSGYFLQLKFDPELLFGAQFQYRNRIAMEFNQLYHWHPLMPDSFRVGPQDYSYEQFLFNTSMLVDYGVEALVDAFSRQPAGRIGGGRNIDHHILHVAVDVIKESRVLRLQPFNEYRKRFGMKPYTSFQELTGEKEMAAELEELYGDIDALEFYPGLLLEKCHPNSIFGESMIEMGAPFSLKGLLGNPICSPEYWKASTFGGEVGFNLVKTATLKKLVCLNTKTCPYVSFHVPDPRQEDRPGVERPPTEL
Experimental: 7.4.1 COX inhibition assay
The COX inhibition potency against ovine COX-1 and human COX-2 was determined using the
fluorescence-based COX assay ’COX Fluorescent Inhibitor Screening Assay Kit‘ (catalog number
reported by us.7 In brief, as a measure of COX mediated conversion of arachidonic acid to PG H2 in the
presence of different inhibitor concentrations this assay utilizes the peroxidase component of COX and
analyzes the formation of fluorescent resorufin. All compounds were assayed in a concentration range
of 10 nM to 100 μM, and every inhibitor concentration was assayed in duplicate.
as internal control. IC50 values were estimated using a nonlinear logistic regression ﬁtting procedure
(sigmoidal dose−response model) with Prism Software.

recombinant human COX-2 = molecular target: T2, recombinant human COX-2 (Homo sapiens, UniProt P35354); experiment: COX Fluorescent Inhibitor Screening Assay Kit, COX-2; type: biochemical
T2 construct: purchased Cayman Chemical, Ann Arbor, MI 700100
T2 sequence (P35354 18-604): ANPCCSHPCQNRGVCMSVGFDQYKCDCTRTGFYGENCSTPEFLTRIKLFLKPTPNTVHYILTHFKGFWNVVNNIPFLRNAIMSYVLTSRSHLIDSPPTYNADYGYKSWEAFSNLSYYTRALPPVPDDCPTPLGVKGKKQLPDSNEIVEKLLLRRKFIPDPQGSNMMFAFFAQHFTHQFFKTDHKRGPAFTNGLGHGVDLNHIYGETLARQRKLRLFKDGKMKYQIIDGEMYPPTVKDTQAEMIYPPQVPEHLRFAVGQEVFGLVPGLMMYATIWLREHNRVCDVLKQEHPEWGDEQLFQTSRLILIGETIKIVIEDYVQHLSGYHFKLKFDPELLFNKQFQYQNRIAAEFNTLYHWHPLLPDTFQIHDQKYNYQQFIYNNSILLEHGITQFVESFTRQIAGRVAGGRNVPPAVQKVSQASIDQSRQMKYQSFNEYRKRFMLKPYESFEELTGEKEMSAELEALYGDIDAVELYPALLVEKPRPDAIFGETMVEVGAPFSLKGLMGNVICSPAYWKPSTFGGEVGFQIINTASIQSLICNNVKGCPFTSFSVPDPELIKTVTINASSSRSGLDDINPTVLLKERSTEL

[3] = read-out: t1/2 distribution (blood clearance of intact compound)
[4] = read-out: t1/2 elimination (blood clearance of intact compound)

- Biodistribution BAT ([1]; 5 min p.i.): 3.31 ± 0.56 SUV
- Biodistribution BAT ([1]; 60 min p.i.): 1.21 ± 0.11 SUV
- Biodistribution adrenals ([1]; 5 min p.i.): 3.28 ± 0.52 SUV
- Biodistribution blood ([1]; 5 min p.i.): 0.42 ± 0.04 SUV
- Biodistribution brain ([1]; 5 min p.i.): 0.54 ± 0.12 SUV
- Biodistribution femur ([1]; 5 min p.i.): 0.84 ± 0.09 SUV
- Biodistribution harderian gland ([1]; 5 min p.i.): 1.94 ± 0.14 SUV
- Biodistribution heart ([1]; 5 min p.i.): 0.76 ± 0.12 SUV
- Biodistribution intestine ([1]; 5 min p.i.): 10.14 ± 1.96 %ID
- Biodistribution kidneys ([1]; 5 min p.i.): 1.58 ± 0.24 SUV
- Biodistribution liver ([1]; 5 min p.i.): 4.16 ± 0.29 SUV
- Biodistribution lung ([1]; 5 min p.i.): 0.92 ± 0.14 SUV
- Biodistribution muscle ([1]; 5 min p.i.): 0.52 ± 0.08 SUV
- Biodistribution pancreas ([1]; 5 min p.i.): 1.37 ± 0.13 SUV
- Biodistribution skin & hair ([1]; 5 min p.i.): 0.9 ± 0.15 SUV
- Biodistribution spleen ([1]; 5 min p.i.): 0.56 ± 0.1 SUV
- Biodistribution stomach ([1]; 5 min p.i.): 1.14 ± 0.57 %ID
- Biodistribution testes ([1]; 5 min p.i.): 0.48 ± 0.04 SUV
- Biodistribution thymus ([1]; 5 min p.i.): 0.95 ± 0.08 SUV
- Biodistribution thyroid gland ([1]; 5 min p.i.): 0.95 ± 0.18 SUV
- Biodistribution urine (calc.) ([1]; 5 min p.i.): 0.15 ± 1.91 %ID
- Biodistribution adrenals ([1]; 60 min p.i.): 0.91 ± 0.15 SUV
- Biodistribution blood ([1]; 60 min p.i.): 0.11 ± 0.01 SUV
- Biodistribution brain ([1]; 60 min p.i.): 0.11 ± 0.02 SUV
- Biodistribution femur (femur uptake, 18F-defluorination) ([1]; 60 min p.i.): 2.6 ± 0.3 SUV
- Biodistribution harderian gland ([1]; 60 min p.i.): 0.5 ± 0.08 SUV
- Biodistribution heart ([1]; 60 min p.i.): 0.16 ± 0.03 SUV
- Biodistribution intestine ([1]; 60 min p.i.): 33.02 ± 3.53 %ID
- Biodistribution kidneys ([1]; 60 min p.i.): 0.47 ± 0.06 SUV
- Biodistribution liver ([1]; 60 min p.i.): 0.92 ± 0.19 SUV
- Biodistribution lung ([1]; 60 min p.i.): 0.21 ± 0.03 SUV
- Biodistribution muscle ([1]; 60 min p.i.): 0.19 ± 0.07 SUV
- Biodistribution pancreas ([1]; 60 min p.i.): 0.62 ± 0.37 SUV
- Biodistribution skin & hair ([1]; 60 min p.i.): 0.25 ± 0.04 SUV
- Biodistribution spleen ([1]; 60 min p.i.): 0.22 ± 0.12 SUV
- Biodistribution stomach ([1]; 60 min p.i.): 1.19 ± 0.49 %ID
- Biodistribution testes ([1]; 60 min p.i.): 0.21 ± 0.04 SUV
- Biodistribution thymus ([1]; 60 min p.i.): 0.21 ± 0.04 SUV
- Biodistribution thyroid gland ([1]; 60 min p.i.): 0.45 ± 0.06 SUV
- Biodistribution urine (calc.) ([1]; 60 min p.i.): 9.12 ± 3.68 %ID
- Biodistribution WAT ([1]; 5 min p.i.): 2.79 ± 1.06 SUV
- Biodistribution WAT ([1]; 60 min p.i.): 2.4 ± 0.28 SUV
- chromatographic logD (log D7.4 by HPLC method): 2.72
- half-life [2, 3]: 1.3 min
- half-life [2, 4]: 17 min
- Radioactivity distribution in blood components: erythrocytes ([2]; 60 min p.i., + TCA): 18%
- Radioactivity distribution in blood components: plasma ([2]; 60 min p.i., + TCA): 73%
- Radioactivity distribution in blood components: plasma supernatant ([2]; 60 min p.i., + TCA): 39%
- Radioactivity distribution in blood components: plasma pellet (bound to plasma proteins) ([2]; 60 min p.i.): 29%
- Radioactivity distribution in blood components: erythrocytes ([2]; 60 min p.i., - TCA): 16%
- Radioactivity distribution in blood components: plasma ([2]; 60 min p.i., - TCA): 70%
- Radioactivity distribution in blood components: plasma pellet ([2]; 60 min p.i., - TCA): 1%
- Radioactivity distribution in blood components: plasma supernatant ([2]; 60 min p.i., - TCA): 73%
- Intact compound in blood plasma ([2]; 20 min p.i.): 54%
- Intact compound in blood plasma ([2]; 60 min p.i.): 52%
Structure (SMILES): [2H]C([2H])([18F])c1cc(-c2ccc(C)cc2)n(-c2ccc(S(C)(=O)=O)cc2)n1 [[D2,^18F]5a]

- liver-to-bladder ratio (hepatobiliary vs renal excretion) ([1]; 60 min p.i.): 2.3
- Biodistribution BAT ([1]; 5 min p.i.): 2.21 ± 0.91 SUV
- Biodistribution BAT ([1]; 60 min p.i.): 1.13 ± 0.29 SUV
- Biodistribution adrenals ([1]; 5 min p.i.): 2.25 ± 1.19 SUV
- Biodistribution blood ([1]; 5 min p.i.): 0.46 ± 0.15 SUV
- Biodistribution brain ([1]; 5 min p.i.): 0.46 ± 0.14 SUV
- Biodistribution femur ([1]; 5 min p.i.): 0.96 ± 0.53 SUV
- Biodistribution harderian gland ([1]; 5 min p.i.): 1.5 ± 0.6 SUV
- Biodistribution heart ([1]; 5 min p.i.): 0.79 ± 0.23 SUV
- Biodistribution intestine ([1]; 5 min p.i.): 6.78 ± 2.69 %ID
- Biodistribution kidneys ([1]; 5 min p.i.): 1.53 ± 0.49 SUV
- Biodistribution liver ([1]; 5 min p.i.): 3.84 ± 1.52 SUV
- Biodistribution lung ([1]; 5 min p.i.): 0.89 ± 0.38 SUV
- Biodistribution muscle ([1]; 5 min p.i.): 0.35 ± 0.18 SUV
- Biodistribution pancreas ([1]; 5 min p.i.): 0.97 ± 0.27 SUV
- Biodistribution skin & hair ([1]; 5 min p.i.): 0.97 ± 0.31 SUV
- Biodistribution spleen ([1]; 5 min p.i.): 0.53 ± 0.24 SUV
- Biodistribution stomach ([1]; 5 min p.i.): 0.87 ± 0.65 %ID
- Biodistribution testes ([1]; 5 min p.i.): 0.34 ± 0.16 SUV
- Biodistribution thymus ([1]; 5 min p.i.): 0.76 ± 0.18 SUV
- Biodistribution thyroid gland ([1]; 5 min p.i.): 0.71 ± 0.4 SUV
- Biodistribution urine (calc.) ([1]; 5 min p.i.): 3.32 ± 4.35 %ID
- Biodistribution adrenals ([1]; 60 min p.i.): 1.85 ± 1.91 SUV
- Biodistribution blood ([1]; 60 min p.i.): 0.12 ± 0.04 SUV
- Biodistribution brain ([1]; 60 min p.i.): 0.12 ± 0.04 SUV
- Biodistribution femur (femur uptake, 18F-defluorination) ([1]; 60 min p.i.): 4.1 ± 0.6 SUV
- Biodistribution harderian gland ([1]; 60 min p.i.): 0.64 ± 0.28 SUV
- Biodistribution heart ([1]; 60 min p.i.): 0.15 ± 0.02 SUV
- Biodistribution intestine ([1]; 60 min p.i.): 19.43 ± 2.27 %ID
- Biodistribution kidneys ([1]; 60 min p.i.): 0.36 ± 0.19 SUV
- Biodistribution liver ([1]; 60 min p.i.): 0.78 ± 0.2 SUV
- Biodistribution lung ([1]; 60 min p.i.): 0.19 ± 0.06 SUV
- Biodistribution muscle ([1]; 60 min p.i.): 0.21 ± 0.1 SUV
- Biodistribution pancreas ([1]; 60 min p.i.): 0.44 ± 0.28 SUV
- Biodistribution skin & hair ([1]; 60 min p.i.): 0.39 ± 0.2 SUV
- Biodistribution spleen ([1]; 60 min p.i.): 0.18 ± 0.07 SUV
- Biodistribution stomach ([1]; 60 min p.i.): 1.06 ± 0.42 %ID
- Biodistribution testes ([1]; 60 min p.i.): 0.27 ± 0.17 SUV
- Biodistribution thymus ([1]; 60 min p.i.): 0.28 ± 0.11 SUV
- Biodistribution thyroid gland ([1]; 60 min p.i.): 0.67 ± 0.37 SUV
- Biodistribution urine (calc.) ([1]; 60 min p.i.): 8.55 ± 2.53 %ID
- Biodistribution WAT ([1]; 5 min p.i.): 1.45 ± 0.53 SUV
- Biodistribution WAT ([1]; 60 min p.i.): 1.67 ± 0.23 SUV
- chromatographic logD (log D7.4 by HPLC method): 2.72
- half-life [2, 3]: 0.6 min
- half-life [2, 4]: 19.5 min
- Radioactivity distribution in blood components: erythrocytes ([2]; 60 min p.i., + TCA): 19%
- Radioactivity distribution in blood components: plasma ([2]; 60 min p.i., + TCA): 71%
- Radioactivity distribution in blood components: plasma supernatant ([2]; 60 min p.i., + TCA): 42%
- Radioactivity distribution in blood components: plasma pellet (bound to plasma proteins) ([2]; 60 min p.i.): 25%
- Radioactivity distribution in blood components: erythrocytes ([2]; 60 min p.i., - TCA): 17%
- Radioactivity distribution in blood components: plasma ([2]; 60 min p.i., - TCA): 67%
- Radioactivity distribution in blood components: plasma pellet ([2]; 60 min p.i., - TCA): 1%
- Radioactivity distribution in blood components: plasma supernatant ([2]; 60 min p.i., - TCA): 80%
- Intact compound in blood plasma ([2]; 20 min p.i.): 46%
- Intact compound in blood plasma ([2]; 60 min p.i.): 28%
Structure (SMILES): Cc1ccc(-c2cc(C[18F])nn2-c2ccc(S(C)(=O)=O)cc2)cc1 [[^18F]5a, 3-([^18F]fluoromethyl)-1-[4-(methylsulfonyl)phenyl]-5-(p-tolyl)-1H-pyrazole]

- IC50 (purified ovine COX-1): > 100 µM
- IC50 (recombinant human COX-2): 0.97 µM
- Selectivity index (recombinant human COX-2; IC50 (COX-1)/IC50 (COX-2)): >103
Structure (SMILES): [2H]C([2H])(F)c1cc(-c2ccc(C)cc2)n(-c2ccc(S(C)(=O)=O)cc2)n1 [[D2]5a]

- IC50 (purified ovine COX-1): > 100 µM
- IC50 (recombinant human COX-2): > 100 µM
Structure (SMILES): Cc1ccc(-c2cc(CCF)n(-c3ccc(S(C)(=O)=O)cc3)n2)cc1 [5d]
